According to patent publication US20060211724A1, “Hiv integrase inhibitors” (priority 2003, published 2006):

These compounds were tested against T1, Recombinant His-tagged HIV-1 integrase (Human immunodeficiency virus type 1 group M subtype B, UniProt P12497, C1427S/F1332K) (assay: Enzymatic integrase assay (oligonucleotide-based DNA strand transfer, ELISA)). Conditions: not given.
T1 construct: Recombinant His-tagged HIV-1 integrase; His; made in house; host or cells: E. coli BL21(DE3)
Assay type: biochemical
Protocol: Enzymatic Integrase Assay
The activity of HIV-integrase was determined using an oligonucleotide-based assay in which the DNA strand transfer by preformed complexes of integrase and processed DNA was measured by means of an enzyme-linked immunosorbent assay (ELISA) in microtiter plate format. Recombinant His-tagged HIV-1 integrase was produced in the E. coli strain BL21(DE3) from the plasmid pINSD.His.sol (available from NTH) after induction with isopropyl-β-D-thiogalactopyranoside (IPTG) according to described procedures (cfr. ref. Jenkins et al., “A soluble active mutant of HIV-1 integrase”, J. Biol. Chem. 271 ([…]), 7712-7718). HPLC-purified oligodeoxynucleotides were obtained from Proligo, and used for preparation of the viral DNA substrate and target DNA.
INb-1C is 5′-biotinylated, INT5 and INT6 are at the 3′-end labeled with FITC. INb-1C and IN-1NC correspond to the U5 end of the HIV-1 LTR. The DNA substrate for the integrase reactions was made by annealing INb-1C and IN-1NC. An equimolar mixture of INb-1C and IN-1NC was heated shortly at 95° C. in the presence of 100 mM NaCl and allowed to cool slowly to room temperature. In the same way, INT5 and INT6 were annealed to produce a target DNA molecule.
The integration strand transfer reactions were performed in the following way:
20 nM biotinylated DNA substrate INb-1C/IN-1NC was pre-incubated with 300 nM HIV-integrase at 37° C. for 5 min, to allow the cleavage reaction to occur. The candidate compounds and 50 nM target DNA INT5/INT6 were added to the reaction mix containing 20 mM Hepes pH 7.5, 25 mM NaCl, 5 mM MnCl2, 2 mM DTT, and 50 μg/ml BSA, and incubated for 2 h at 37° C. The reaction mix was transferred to streptavidin-coated plates (Exiqon), which were prewashed (three times) with 5×SSCT, and incubated for 1 h at room temperature to allow capture of the biotinylated viral DNA/target DNA complex. Plates were washed three times with 2×SSCT buffer, and anti-FITC POD-coupled antibody (Roche) was added and incubated for 1 h at room temperature to detect integrated FITC-labeled target DNA. After a final washing step with PBST (5 times), BM chemiluminescent POD-substrate (Roche) was added, and luminescence was read out.
The table below list the pIC50 values for those compounds tested in the enzymatic integrase assay. The pIC50 is expressed in Molar units and is the value according to the following formula: pIC50=−log IC50
wherein the IC50 value is the drug concentration at which 50% of the enzyme or viral activity is inhibited.

**Q.** `Cc1ccc2c(O)c3c(c(O)c2n1)C(=O)N(CCc1ccccc1)C3=O` [Compound 19, 5,9-Dihydroxy-2-methyl-7-phenethyl-pyrrolo[3,4-g]quinoline-6,8-dione] was tested. Which IC50 did it give?
**A.** 4.17 µM

**Q.** `CC(c1ccccc1)N1C(=O)c2c(c(O)c3c(ncn3Cc3ccccc3)c2O)C1=O` (centres unmarked) [Compound 40, 1-Benzyl-4,8-dihydroxy-6-(1-phenyl-ethyl)-1H-1,3,6-triaza-s-indacene-5,7-dione] was tested. Which IC50 did it give?
**A.** 1.12 µM

**Q.** Which IC50 does the source give for `Cc1ccc2c(O)c3c(c(O)c2n1)C(=O)N(c1ccccc1)C3=O` [Compound 30, 5,9-Dihydroxy-2-methyl-7-phenyl-pyrrolo[3,4-g]quinoline-6,8-dione] here?
**A.** 24 µM

**Q.** `O=C1c2c(c(O)c3nccnc3c2O)C(=O)N1Cc1ccc(Oc2ccccc2)cc1` [Compound 7, 5,9-Dihydroxy-7-(4-phenoxy-benzyl)-pyrrolo[3,4-g]quinoxaline-6,8-dione] was tested. Which IC50 did it give?
**A.** 4.9 µM

**Q.** `Cc1ccc2c(O)c3c(c(O)c2n1)C(=O)N(Cc1cccc(F)c1)C3=O` [Compound 21, 7-(3-Fluoro-benzyl)-5,9-dihydroxy-2-methyl-pyrrolo[3,4-g]quinoline-6,8-dione] was tested. Which IC50 did it give?
**A.** 0.871 µM

**Q.** How did the IC50 turn out when `CS(=O)(=O)c1ccc(CN2C(=O)c3c(c(O)c4nccnc4c3O)C2=O)cc1` [Compound 34, 5,9-Dihydroxy-7-(4-methanesulfonyl-benzyl)-pyrrolo[3,4-g]quinoxaline-6,8-dione] was run?
**A.** 8.71 µM

**Q.** `O=C1c2c(c(O)c3c(ncn3Cc3ccccc3)c2O)C(=O)N1Cc1ccc2c(c1)OCO2` [Compound 38, 6-Benzo[1,3]dioxol-5-ylmethyl-1-benzyl-4,8-dihydroxy-1H-1,3,6-triaza-s-indacene-5,7-dione] was tested. Which IC50 did it give?
**A.** 0.479 µM

**Q.** `CC(c1ccccc1)N1C(=O)c2c(c(O)c3nccnc3c2O)C1=O` (centres unmarked) [Compound 25, 5,9-Dihydroxy-7-(1-phenyl-ethyl)-pyrrolo[3,4-g]quinoxaline-6,8-dione] was tested. Which IC50 did it give?
**A.** 2.04 µM

**Q.** How did the IC50 turn out when `O=C1c2c(c(O)c3nccnc3c2O)C(=O)N1c1ccc(F)cc1` [Compound 33, 7-(4-Fluoro-phenyl)-5,9-dihydroxy-pyrrolo[3,4-g]quinoxaline-6,8-dione] was run?
**A.** 21.9 µM

**Q.** `O=C1c2c(c(O)c3nccnc3c2O)C(=O)N1Cc1cccc2ccccc12` [Compound 27, 5,9-Dihydroxy-7-naphthalen-1-ylmethyl-pyrrolo[3,4-g]quinoxaline-6,8-dione] was tested. Which IC50 did it give?
**A.** 1.41 µM

**Q.** With `O=C1c2c(c(O)c3[nH]cnc3c2O)C(=O)N1Cc1ccc2c(c1)OCO2` [Compound 39, 6-Benzo[1,3]dioxol-5-ylmethyl-4,8-dihydroxy-1H-1,3,6-triaza-s-indacene-5,7-dione] as the compound, how does the IC50 read?
**A.** 2.04 µM

**Q.** How did the IC50 turn out when `C[C@H](c1ccccc1)N1C(=O)c2c(c(O)c3nccnc3c2O)C1=O` [Compound 15, 5,9-Dihydroxy-7-(1-(R)-phenyl-ethyl)-pyrrolo[3,4-g]quinoxaline-6,8-dione] was run?
**A.** 1.05 µM

**Q.** For `O=C1c2c(c(O)c3nccnc3c2O)C(=O)N1C1CCCC1` [Compound 32, 7-Cyclopentyl-5,9-dihydroxy-pyrrolo[3,4-g]quinoxaline-6,8-dione], which IC50 is on record?
**A.** 10.5 µM

**Q.** How did the IC50 turn out when `CC(c1ccccc1)N1C(=O)c2c(c(O)c3ccccc3c2O)C1=O` (centres unmarked) [Compound 42, 4,9-Dihydroxy-2-(1-phenyl-ethyl)-benzo[f]isoindole-1,3-dione] was run?
**A.** > 100 µM

**Q.** `O=C1c2c(c(O)c3nccnc3c2O)C(=O)N1Cc1cccc(F)c1` [Compound 16, 7-(3-Fluoro-benzyl)-5,9-dihydroxy-pyrrolo[3,4-g]quinoxaline-6,8-dione] was tested. Which IC50 did it give?
**A.** 0.562 µM

**Q.** `Cc1ccc2c(O)c3c(c(O)c2n1)C(=O)N(C(C)c1ccccc1)C3=O` (centres unmarked) [Compound 8, 5,9-Dihydroxy-2-methyl-7-(1-phenyl-ethyl)-pyrrolo[3,4-g]quinoline-6,8-dione] was tested. Which IC50 did it give?
**A.** 10.7 µM

**Q.** Which IC50 does the source give for `O=C1c2c(c(O)c3nccnc3c2O)C(=O)N1Cc1cccc(CN2C(=O)c3c(c(O)c4nccnc4c3O)C2=O)c1` [Compound 18, 7-[3-(5,9-Dihydroxy-6,8-dioxo-6,8-dihydro-pyrrolo[3,4-g]quinoxalin-7-ylmethyl)-benzyl]-5,9-dihydroxy-pyrrolo[3,4-g]quinoxaline-6,8-dione] here?
**A.** 7.59 µM

**Q.** `Cc1ccc2c(O)c3c(c(O)c2n1)C(=O)N(Cc1ccc2c(c1)OCO2)C3=O` [Compound 20, 7-Benzo[1,3]dioxol-5-ylmethyl-5,9-dihydroxy-2-methyl-pyrrolo[3,4-g]quinoline-6,8-dione] was tested. Which IC50 did it give?
**A.** 2.14 µM

**Q.** How did the IC50 turn out when `O=C1c2c(c(O)c3nccnc3c2O)C(=O)N1CCc1ccccc1` [Compound 14, 5,9-Dihydroxy-7-phenethyl-pyrrolo[3,4-g]quinoxaline-6,8-dione] was run?
**A.** 2.04 µM

**Q.** For `Cc1ccc(CN2C(=O)c3c(c(O)c4nccnc4c3O)C2=O)cc1` [Compound 3, 5,9-Dihydroxy-7-(4-methyl-benzyl)-pyrrolo[3,4-g]quinoxaline-6,8-dione], which IC50 is on record?
**A.** 1.58 µM

**Q.** Which IC50 does the source give for `O=C1c2c(c(O)c3ccccc3c2O)C(=O)N1Cc1ccc(F)cc1` [Compound 11, 2-(4-Fluoro-benzyl)-4,9-dihydroxy-benzo[f]isoindole-1,3-dione] here?
**A.** > 100 µM

**Q.** `C#CCOc1c2c(c(O)c3nccnc13)C(=O)N(Cc1ccc3c(c1)OCO3)C2=O` [Compound 36, 7-Benzo[1,3]dioxol-5-ylmethyl-5-hydroxy-9-prop-2-ynyloxy-pyrrolo[3,4-g]quinoxaline-6,8-dione] was tested. Which IC50 did it give?
**A.** 18.2 µM

**Q.** For `O=C1c2c(c(O)c3nccnc3c2O)C(=O)N1c1ccccc1Br` [Compound 35, 7-(2-Bromo-phenyl)-5,9-dihydroxy-pyrrolo[3,4-g]quinoxaline-6,8-dione], which IC50 is on record?
**A.** 1.82 µM

**Q.** Which IC50 does the source give for `O=C1c2c(c(O)c3nccnc3c2O)C(=O)N1c1ccc2c(c1)OCO2` [Compound 10, 7-Benzo[1,3]dioxol-5-yl-5,9-dihydroxy-pyrrolo[3,4-g]quinoxaline-6,8-dione] here?
**A.** 10 µM

**Q.** For `O=C1c2c(c(O)c3nccnc3c2O)C(=O)N1CCN1CCOCC1` [Compound 28, 5,9-Dihydroxy-7-(2-morpholine-4-yl-ethyl)-pyrrolo[3,4-g]quinoxaline-6,8-dione], which IC50 is on record?
**A.** 66.1 µM

**Q.** `COc1ccc(CN2C(=O)c3c(c(O)c4nc(C)ccc4c3O)C2=O)cc1` [Compound 23, 5,9-Dihydroxy-7-(4-methoxy-benzyl)-2-methyl-pyrrolo[3,4-g]quinoline-6,8-dione] was tested. Which IC50 did it give?
**A.** 1.48 µM

**Q.** With `O=C1c2c(c(O)c3ncccc3c2O)C(=O)N1CCc1ccccc1` [Compound 24, 5,9-Dihydroxy-7-phenethyl-pyrrolo[3,4-g]quinoline-6,8-dione] as the compound, how does the IC50 read?
**A.** 2.51 µM

**Q.** How did the IC50 turn out when `O=C1c2c(c(O)c3ncccc3c2O)C(=O)N1Cc1ccc2c(c1)OCO2` [Compound 5, 7-Benzo[1,3]dioxol-5-ylmethyl-5,9-dihydroxy-pyrrolo[3,4-g]quinoline-6,8-dione] was run?
**A.** 5.62 µM

**Q.** Which IC50 does the source give for `O=C1c2c(c(O)c3nccnc3c2O)C(=O)N1CC1CCCCC1` [Compound 26, 7-Cyclohexylmethyl-5,9-Dihydroxy-pyrrolo[3,4-g]quinoxaline-6,8-dione] here?
**A.** 2.19 µM

**Q.** How did the IC50 turn out when `O=C1c2c(c(O)c3nccnc3c2O)C(=O)N1Cc1ccncc1` [Compound 29, 5,9-Dihydroxy-7-pyridin-4-ylmethyl-pyrrolo[3,4-g]quinoxaline-6,8-dione] was run?
**A.** 6.76 µM

**Q.** `CC(C)CCOc1c2c(c(O)c3nccnc13)C(=O)N(Cc1ccc3c(c1)OCO3)C2=O` [Compound 37, 7-Benzo[1,3]dioxol-5-ylmethyl-5-hydroxy-9-(3-methyl-butoxy)-pyrrolo[3,4-g]quinoxaline-6,8-dione] was tested. Which IC50 did it give?
**A.** 1.48 µM

**Q.** Which IC50 does the source give for `COc1ccc(CN2C(=O)c3c(c(O)c4nccnc4c3O)C2=O)cc1` [Compound 17, 5,9-Dihydroxy-7-(4-methoxy-benzyl)-pyrrolo[3,4-g]quinoxaline-6,8-dione] here?
**A.** 0.562 µM

**Q.** How did the IC50 turn out when `O=C1c2c(c(O)c3ccccc3c2O)C(=O)N1CCc1ccccc1` [Compound 12, 4,9-Dihydroxy-2-phenethyl-benzo[f]isoindole-1,3-dione] was run?
**A.** > 100 µM

**Q.** `O=C1c2c(c(O)c3nccnc3c2O)C(=O)N1Cc1ccc(Br)cc1` [Compound 4, 7-(4-Bromo-benzyl)-5,9-dihydroxy-pyrrolo[3,4-g]quinoxaline-6,8-dione] was tested. Which IC50 did it give?
**A.** 0.219 µM

Same assay, conditions: pIC50=−log IC50, expressed in Molar units; strand transfer, 5 mM MnCl2, 2 h at 37° C.

**Q.** Which pIC50 does the source give for `CCOC(=O)C(=O)Oc1c2c(c(O)c3nccnc13)CN(Cc1ccc3c(c1)OCO3)C2` [Compound 6, Oxalic acid 7-benzo[1,3]dioxol-5-ylmethyl-9-hydroxy-6,8-dihydro-6H-pyrrolo[3,4-g]quinoxalin-5-yl ester ethyl ester] here?
**A.** 5.50
